Measured values: patent US4999199A, “Pharmaceutical formulations: liposomes incorporating aromatic polyene antibiotics” (priority 1988, dated 1991)

What was measured:
[1] = test system: human red blood cells (RBC); experiment: In vitro toxicity toward red blood cells (hemoglobin release, hemolysis); details: at 75 Mg/ml (so in the source); 20% human RBC, 45 minutes at 37° C.; hypotonic water = 100% lysis
Procedure: The samples were incubated for 45 minutes at 37° C., centrifuged at 10,000 xg for 20 minutes, and the hemoglobin content of the supernatant determined by its light absorbance. The release of hemoglobin by a hypotonic water solution was also measured and was considered to represent 100% lysis.

various fungi = experiment: In vitro susceptibility experiments, candicidin compared with amphotericin B; format: cell-based; details: experiments in various laboratories including those of the present inventors
[2] = cited from earlier work
humans = details: given orally to humans; cited from earlier work
[3] = conventional formulations, parenteral; cited from earlier work

Row | Compound | RBC hemolysis [1] | antifungal activity compared with amphotericin B (various fungi) | water solubility [2] | toxicity on oral administration (humans) | persons given amphotericin B who develop decreased renal function and abnormal urine sediment [3]
1 | candicidin | 75% | much higher antifungal activity than amphotericin B | totally water insoluble | without any toxicity | –
2 | C[C@@H]1[C@H](O)[C@@H](C)/C=C/C=C/C=C/C=C/C=C/C=C/C=C/[C@H](O[C@@H]2O[C@H](C)[C@@H](O)[C@H](N)[C@@H]2O)C[C@@H]2O[C@](O)(C[C@@H](O)C[C@@H](O)[C@H](O)CC[C@@H](O)C[C@@H](O)CC(=O)O[C@H]1C)C[C@H](O)[C@H]2C(=O)O [amphotericin B] | – | – | – | – | over 80%
